Assay results as given in patent US9662319B2 (Mayo Foundation for Medical Education and Research, priority 2011, dated 2017).

Tests used:
[1] = test system: CRBN depleted myeloma cell lines; experiment: MTT cell viability of CRBN shRNA knock-down myeloma cell lines versus NT control cells in presence of anti-myeloma drugs; format: cell-based, human; details: sorted GFP positive myeloma cell lines with CRBN knock-down
Description: (§1) The lentiviruses expressing NT or CRBN shRNAs were subcloned into a GFP containing construct and used to infect various myeloma cell lines as described elsewhere (Zhu et al., Blood, 117(14):3847-3857 (2011); Epublished Feb. 2, 2011). After a 48-hour infection period, efficiency was measured at 72 hours and 6 days post infection by FACScan analysis of GFP expression. Cell viability was measured by 3-(4,5-dimethylthiazol)-2,5-diphenyl tetrazolium (MTT) dye absorbance according to the manufacturer's instructions (Boehringer Mannheim, Mannheim, Germany). Cells were also harvested at 72 hours post infection for real-time PCR analysis of CRBN levels in control and CRBN shRNA expressing cells. At three weeks post infection, GFP-positive cells were sorted and expanded. Real-time PCR was performed to measure CRBN levels in sorted cells.
Plates were incubated for 72 hours to six days. Cell viability was determined using an MTT assay. Each experimental condition was performed in triplicate and repeated at least once.
Proliferation of those CRBN depleted but surviving MM cells were then tested in the absence or presence of different anti-myeloma drugs.

human MM cells lines = experiment: MTT assay, baseline cytotoxicity on a panel of human MM cell lines; format: cell-based; details: 11 tested MM cell lines, 1.6 μM to 50 μM, 72 hours, in vitro
Description: as §1
In some experiments, cells were incubated with various doses of lenalidomide, dexamethasone, melphalan, or bortezomib. Plates were incubated for 72 hours to six days. Cell viability was determined using an MTT assay. Each experimental condition was performed in triplicate and repeated at least once.
A MTT assay was performed on a panel of genetically heterogeneous human MM cells lines in vitro (FIG. 1). […] The same dose of thalidomide, however, had no effect on MM cell growth.

| Compound | sensitivity of CRBN knock-down cells compared with NT control cells [1] | growth of MM cell lines (MTT) (human MM cells lines) |
| --- | --- | --- |
| CC(C)C[C@H](NC(=O)[C@H](Cc1ccccc1)NC(=O)c1cnccn1)B(O)O [Bortezomib] | more sensitive | – |
| Nc1cccc2c1CN(C1CCC(=O)NC1=O)C2=O (stereo not shown) [Lenalidomide] | – | inhibited growth of 8 of 11 tested MM cell lines |
| Nc1cccc2c1C(=O)N(C1CCC(=O)NC1=O)C2=O (stereo not shown) [pomalidomide] | resistance | – |
| O=C1CCC(N2C(=O)c3ccccc3C2=O)C(=O)N1 (stereo not shown) [thalidomide] | – | no effect |
